Test results taken from US12624034B2, “Non-covalent modifiers of AKT1 and uses thereof” (Terremoto Biosciences, Inc., priority 2023, dated 2026).
Like-named read-outs stand apart in the source and are kept apart here.

Key:
AKT1 WT = molecular target: T1, AKT1 WT (Homo sapiens, UniProt P31749); test: Live cell AKT1 WT target engagement by NanoBRET competitive probe displacement in HEK293 cells; type: binding; details: 2 h at 37° C., read-out: AKT1 WT IC50
T1 construct: expressed in transfected cells; host or cells: HEK293

AKT2 = molecular target: T2, AKT2 (Homo sapiens, UniProt P31751); test: Live cell AKT2 target engagement by NanoBRET competitive probe displacement in HEK293 cells; type: binding; details: 2 h at 37° C., read-out: AKT2 IC50
T2 construct: expressed in transfected cells; host or cells: HEK293

[1] = NanoBRET live cell target engagement, HEK293 cells
[2] = NanoBRET competitive probe displacement, live HEK293 cells

T2 sequence (P31751 whole entry): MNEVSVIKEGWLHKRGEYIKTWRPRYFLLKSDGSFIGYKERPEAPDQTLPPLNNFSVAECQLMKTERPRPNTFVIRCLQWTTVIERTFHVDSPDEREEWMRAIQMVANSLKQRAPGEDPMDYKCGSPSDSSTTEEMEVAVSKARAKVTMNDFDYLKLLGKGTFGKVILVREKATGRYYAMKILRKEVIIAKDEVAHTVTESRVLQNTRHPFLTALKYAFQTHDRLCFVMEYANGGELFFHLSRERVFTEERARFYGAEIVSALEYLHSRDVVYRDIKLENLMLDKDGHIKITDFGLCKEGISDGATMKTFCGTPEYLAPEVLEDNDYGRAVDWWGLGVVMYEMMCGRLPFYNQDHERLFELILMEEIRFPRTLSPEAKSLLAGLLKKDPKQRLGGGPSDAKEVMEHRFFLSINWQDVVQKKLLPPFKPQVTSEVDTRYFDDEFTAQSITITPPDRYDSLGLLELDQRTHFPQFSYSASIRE
T1 sequence (P31749 whole entry): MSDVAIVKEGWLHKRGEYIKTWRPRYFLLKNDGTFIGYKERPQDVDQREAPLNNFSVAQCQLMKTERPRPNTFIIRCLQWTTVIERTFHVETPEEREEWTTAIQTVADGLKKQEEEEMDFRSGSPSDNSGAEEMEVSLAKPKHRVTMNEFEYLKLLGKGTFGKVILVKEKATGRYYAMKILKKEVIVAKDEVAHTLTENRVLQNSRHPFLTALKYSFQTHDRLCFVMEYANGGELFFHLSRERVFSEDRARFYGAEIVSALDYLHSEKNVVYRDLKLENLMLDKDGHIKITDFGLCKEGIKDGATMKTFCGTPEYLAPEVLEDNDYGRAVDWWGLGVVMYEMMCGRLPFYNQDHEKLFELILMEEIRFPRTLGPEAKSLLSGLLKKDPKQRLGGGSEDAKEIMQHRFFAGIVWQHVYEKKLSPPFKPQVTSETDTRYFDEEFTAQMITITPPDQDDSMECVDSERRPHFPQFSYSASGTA

| Structure (SMILES) | IC50 (AKT1 WT; [1]) | IC50 (AKT2; [1]) | IC50 (AKT1 WT; [2]) | IC50 (AKT2; [2]) |
| --- | --- | --- | --- | --- |
| Nc1ncccc1-c1nc2ccc(-n3cccn3)nc2n1-c1ccc2c(c1)CC[C@@H]2n1cc(-c2ccccn2)nn1 [Compound 200] | 14.7 nM | 212 nM | – | – |
| Cn1nc(C(=O)N[C@H]2CCc3cc(-n4c(-c5cccnc5N)nc5ccc(-n6cccn6)nc54)ccc32)c2cccnc21 [Compound 163] | 20.4 nM | 363 nM | – | – |
| Nc1ncccc1-c1nc2ccc(-n3cccn3)nc2n1-c1ccc2c(c1)CC[C@@H]2NC(=O)c1cnc2cccn2c1 [Compound 291] | 5.14 nM | 56.5 nM | – | – |
| Nc1ncccc1-c1nc2ccc(-n3cccn3)nc2n1-c1ccc2c(c1)CC[C@@H]2NC1CCN(C(=O)C2CC2)C1 (stereo partly drawn) [Compound 461] | – | – | 109 nM | 3030 nM |
| Cc1cn(C)nc1C(=O)N[C@H]1CCc2cc(-n3c(-c4cccnc4N)nc4ccc(-n5cccn5)nc43)ccc21 [Compound 172] | 203 nM | 2390 nM | – | – |
| Cc1ccc(C(=O)N[C@H]2CCc3cc(-n4c(-c5cccnc5N)nc5ccc(-c6nc(C(F)F)cs6)nc54)ccc32)cn1 [Compound 403] | – | – | 6.13 nM | 20.1 nM |
| Nc1ncccc1-c1nc2ccc(-n3cccn3)nc2n1-c1ccc2c(c1)CC[C@@H]2NCc1ccc(C(F)F)nc1 [Compound 84] | 113 nM | 1960 nM | – | – |
| COc1ncn(-c2ccc3nc(-c4cccnc4N)n(-c4ccc5c(c4)CC[C@@H]5NC(=O)c4ccc(C)nc4)c3n2)n1 [Compound 456, (S)—N-(5-(2-(2-aminopyridin-3-yl)-5-(3-methoxy-1H-1,2,4-triazol-1-yl)-3H-imidazo[4,5-b]pyridin-3-yl)-2,3-dihydro-1H-inden-1-yl)-6-methylnicotinamide] | – | – | 52.3 nM | 715 nM |
| COc1cccc(C(=O)N[C@H]2CCc3cc(-n4c(-c5cccnc5N)nc5ccc(-n6cccn6)nc54)ccc32)c1 [Compound 335] | 5.88 nM | 31.5 nM | – | – |
| CN(CC1CC1)[C@H]1CCc2cc(-n3c(-c4cccnc4N)nc4ccc(-n5cccn5)nc43)ccc21 [Compound 437] | – | – | 80.7 nM | 1570 nM |
| Nc1ncccc1-c1nc2ccc(-n3cccn3)nc2n1-c1ccc2c(c1)CC[C@@H]2NC1CCc2cc(O)ccc21 (stereo partly drawn) [Compound 498] | – | – | 43 nM | 620 nM |
| Nc1ncccc1-c1nc2ccc(-n3cccn3)nc2n1-c1ccc2c(c1)CC[C@@H]2NC(=O)c1cc(C(F)F)ns1 [Compound 452] | – | – | 6.63 nM | 131 nM |
| Nc1ncccc1-c1nc2ccc(C#CC3CC3)nc2n1-c1ccc2c(c1)CC[C@@H]2NC(=O)c1ccc(F)c(F)c1 [Compound 459] | – | – | 26.6 nM | 782 nM |
| COc1ccn(-c2ccc3nc(-c4cccnc4N)n(-c4ccc5c(c4)CC[C@@H]5NC4CN(C(=O)C5CC5)C4)c3n2)n1 [Compound 484] | – | – | 28.4 nM | 3850 nM |
| Nc1ncccc1-c1nc2ccc(-n3nccn3)nc2n1-c1ccc2c(c1)CC[C@@H]2n1cc(C2CC2)nn1 [Compound 352] | 141 nM | 4290 nM | – | – |
| Nc1ncccc1-c1nc2ccc(-n3ccc(OC(F)F)n3)nc2n1-c1ccc2c(c1)CC[C@@H]2NC1[C@@H]2COC[C@H]1CN(C(=O)C1CC1)C2 (stereo partly drawn) [Compound 560] | – | – | 249 nM | 2520 nM |
| Cc1ncccc1-c1cn([C@H]2CCc3cc(-n4c(-c5cccnc5N)nc5ccc(-n6cccn6)nc54)ccc32)nn1 [Compound 254] | 23.9 nM | 753 nM | – | – |
| Nc1ncccc1-c1nc2ccc(-n3cccn3)nc2n1-c1ccc2c(c1)CC[C@@H]2NC(=O)c1cnc2c(c1)CCC2(F)F [Compound 66] | 8.95 nM | 15 nM | – | – |

Other lines, results leading:

| IC50 (AKT1 WT; [1]) | IC50 (AKT2; [1]) | IC50 (AKT1 WT; [2]) | IC50 (AKT2; [2]) | Structure (SMILES) |
| --- | --- | --- | --- | --- |
| 11.6 nM | 165 nM | – | – | Nc1ncccc1-c1nc2ccc(-n3cccn3)nc2n1-c1ccc2c(c1)CC[C@@H]2n1ccnc1 [Compound 273, (S)-3-(3-(1-(1H-imidazol-1-yl)-2,3-dihydro-1H-inden-5-yl)-5-(1H-pyrazol-1-yl)-3H-imidazo[4,5-b]pyridin-2-yl)pyridin-2-amine] |
| 41.1 nM | 1010 nM | – | – | Cc1ccc(CN(C)[C@H]2CCc3cc(-n4c(-c5cccnc5N)nc5ccc(-n6cccn6)nc54)ccc32)cn1 [Compound 168] |
| – | – | 46.2 nM | 1580 nM | CC#Cc1ccc2nc(-c3cccnc3N)n(-c3ccc4c(c3)CC[C@@H]4NC(=O)c3ccc(C(F)F)nc3)c2n1 [Compound 405] |
| – | – | 336 nM | 3100 nM | Cc1ccc(C(=O)N[C@H]2CCc3cc(-n4c(-c5cccnc5N)nc5ccc(-n6ncnc6C6CC6)nc54)ccc32)cn1 [Compound 420] |
| – | – | 28.3 nM | 1740 nM | Cc1ccc(C(=O)N[C@H]2CCc3cc(-n4c(-c5cccnc5N)nc5c(C#N)cc(-n6nccn6)nc54)ccc32)cn1 [Compound 547] |
| – | – | 2.96 nM | 70 nM | Nc1ncccc1-c1nc2ccc(-n3cccn3)nc2n1-c1ccc2c(c1)CC[C@@H]2NC(=O)c1cc(C2CC2)c(O)c(C(F)(F)F)c1 [Compound 415] |
| 6.39 nM | 36 nM | – | – | Nc1ncccc1-c1nc2ccc(-n3cccn3)nc2n1-c1ccc2c(c1)CC[C@@H]2NC(=O)c1cnc2c(c1)COC2 [Compound 106] |
| – | – | 92.6 nM | 5410 nM | Cc1oncc1C(=O)N1CCC(N[C@H]2CCc3cc(-n4c(-c5cccnc5N)nc5ccc(-n6cccn6)nc54)ccc32)CC1 [Compound 489] |
| > 1000 nM | 2550 nM | – | – | CN(C(=O)N[C@H]1CCc2cc(-n3c(-c4cccnc4N)nc4ccc(-n5cccn5)nc43)ccc21)c1ccccc1 [Compound 132, (S)-3-(5-(2-(2-aminopyridin-3-yl)-5-(1H-pyrazol-1-yl)-3H-imidazo[4,5-b]pyridin-3-yl)-2,3-dihydro-1H-inden-1-yl)-1-methyl-1-phenylurea] |
| – | – | 64.4 nM | 1570 nM | Nc1ncccc1-c1nc2ccc(-c3ccn(C4CCOCC4)n3)nc2n1-c1ccc2c(c1)CC[C@@H]2NC1CCN(C(=O)C2CC2)CC1 [Compound 555] |
| 94.6 nM | 1910 nM | – | – | Nc1ncccc1-c1nc2ccc(-n3cccn3)nc2n1-c1ccc2c(c1)CC[C@@H]2NC(=O)c1cccn2ccnc12 [Compound 161] |
| 168 nM | 4550 nM | – | – | Nc1ncccc1-c1nc2ccc(-n3nccn3)nc2n1-c1ccc2c(c1)CC[C@@H]2NCc1ccc(C(F)F)nc1 [Compound 234] |
| 3.83 nM | 18.9 nM | – | – | Nc1ncccc1-c1nc2ccc(-n3cccn3)nc2n1-c1ccc2c(c1)CC[C@@H]2NC(=O)c1ccc2ccnn2c1 [Compound 290] |
| 704 nM | 9910 nM | – | – | Nc1ncccc1-c1nc2ccc(-n3cccn3)nc2n1-c1ccc2c(c1)CC[C@@H]2NC(=O)[C@@H]1CCO1 [Compound 373] |
| – | – | 25.9 nM | 1570 nM | Cc1ccc(C(=O)N[C@H]2CCc3cc(-n4c(-c5cccnc5N)nc5cc(F)c(-n6nccn6)nc54)ccc32)cn1 [Compound 466] |
| – | – | > 1000 nM | 7230 nM | Nc1ncccc1-c1nc2ccc(-n3nccn3)nc2n1-c1ccc2c(c1)CC(F)[C@@H]2NC1CCN(C(=O)C2CC2)CC1 (single isomer, unassigned) [Compound 533] |
| – | – | 74.9 nM | 1690 nM | Cn1c(C(=O)N[C@H]2CCc3cc(-n4c(-c5cccnc5N)nc5ccc(-n6nccn6)nc54)ccc32)cnc1C(F)F [Compound 578] |
| – | – | 2.77 nM | 15.3 nM | Nc1ncccc1-c1nc2ccc(-n3ccc(OC(F)F)n3)nc2n1-c1ccc2c(c1)CC[C@@H]2NC(=O)c1ccc(C2CC2)nc1 [Compound 537] |
